Assays:
PC12 cell = test: Inhibition of [3H]-norepinephrine release from PC12 cells; type: cell-based; conditions: normal PC12 cells, FIG. 4
Protocol: PC12 cells were cultured in a Ham's F12K medium where 10% […], 5% fetal bovine serum, and antibiotics were added in a collagen-coated plate (60 mm dish). In subculture, after sucking of the medium, 2 ml of PBS was added and cells were separated from a dish wall through pipetting. Then, centrifugation with 1,000×g for 5 minutes was carried out to obtain cells. A new medium was introduced, and a cell pellet was dispersed through pipetting and was loaded onto a new culture plate. And culture was carried out at 37° C. in a culture medium providing 5% CO2 gas. [^3H]-norepinephrine used for the experiment was purchased from Amersham. After sucking of the medium in the plate of PC12 cells, PBS was added and cells were separated from a plate wall. Then, the number of cells was measured by a hemacytometer, and the cells were dispersedly inoculated into a new medium at a concentration of 2×10^5 cell/ml. After 24 hours, a buffer solution ([^3H]—NE, 1.5 μCi/ml) for assay of norepinephrine was added, and then the cells were induced in a carbon dioxide incubator for 90 minutes. After the reaction, the buffer solution was removed and the cells were washed three times with PBS. Then, a new medium and each polyphenol compound were loaded and a reaction was performed for 30 minute. […]

[1] = molecular target: T1, membrane fusion caused by SNARE (SNAP25, syntaxin 1A, VAMP2) (UniProt P60879+P63045+Q16623); test: Membrane fusion assay with SNARE-reconstituted liposomes (fluorescence); type: biochemical; conditions: for remaining activity at 20 µM: 20 μM phenolic compound, 100% = no inhibitor added, read-out: Membrane fusion caused by SNARE (% of fusion without inhibitor); for Reduction of membrane fusion (in words): FIG. 3; for Ratio for inhibition by 50% (IR50), membrane fusion: molar concentration ratio phenolic compound:SNAP-25, average of at least three measurements
T1 construct: made in house; host or cells: E. coli (Codon (+) RIL, Novagen)
Protocol: In order to produce SNARE proteins, SNARE proteins, such as SNAP25 (NM011428), syntaxin 1A (AF217197), and VAMP2 (NM012663), were purified in biologically transformed E. coli (Codon (+) RIL, Novagen).
In order to prepare liposome (fine membrane) marked with a fluorescent substance, POPC (62 mol %), DOPS (35 mol %), NBD-PS (1.5 mol %) and a fluorescent substance Rhodamin-PE (1.5 mol %) were mixed to obtain 10 mM of liposome (v-vesicle). Also, in order to prepare a liposome not marked with a fluorescent substance, DOPS and POPC were mixed in a molar concentration ratio of 35:65 to obtain 50 mM of liposome (t-vesicle). In order to prepare a complex of the purified SNAP25 and syntaxin 1a, the SNAP25 and the syntaxin 1a were mixed in a molar concentration ratio of 1:1, and then were reacted at room temperature for 1 hour. Then, the resultant mixture and the liposome not marked with a fluorescent substance were mixed in a molar ratio of 100:1. The VAMP2 and the liposome marked with a fluorescent substance were mixed in a molar ratio of 50:1. Then, each of the two kinds of liposomes was dialyzed by using 10 kDa dialyzing membrane through agitation at 4° C. for 24 hours, and the liposomes were mixed in a ratio of 3:7 (v-vesicle t-visicle). Next, fluorescence was measured by using a fluorometer (SpectraMax M2 manufactured by Molecular Device).
Herein, 100% indicates the degree of membrane fusion in the state where no inhibitor was added. As the value is smaller, the inhibiting degree is higher.

[2] = molecular target: T2, SNARE complex (SNAP25, SynH3, Vps) (UniProt P60879+P63045+Q16623); test: SDS-PAGE analysis of SNARE complex formation; type: biochemical; conditions: for Inhibition of SNARE complex formation (in words): FIG. 2, concentration series; for SNARE complex formation (%): control = 100, footnote: [phenolic compound]:SNAP-25 = 1:1, SNARE proteins 10 μM each, polyphenol 100 μM, room temperature 30 min; for Ratio for inhibition by 50% (IR50), SNARE complex formation: molar concentration ratio phenolic compound:SNAP-25, average of at least three measurements
T2 construct: SynH3 (AF217197); Vps (NM012663); made in house; host or cells: E. coli (Codon (+) RIL, Novagen)
Protocol: A SNARE complex is strong enough so as not to be untwisted by SDS. On the basis of such a property, a SDS-PAGE analysis was performed in order to determine the formation of a SNARE complex. Polyphenol compounds used in the present Example were purchased from Sigma-Aldrich, Wako Chemical, and Extrasynthese.
In order to produce SNARE proteins, SNARE proteins, such as, SNAP25 (NM011428), syntaxin 1A (AF217197), VAMP2 (NM012663), SynH3 (AF217197), and Vps (NM012663), were purified in biologically transformed E. coli (Codon (+) RIL, Novagen).
Then, the materials were quickly mixed by a vortex, and were reacted at room temperature for 30 minutes. […]

T1 sequence (P60879 whole entry, the tested form may be a part): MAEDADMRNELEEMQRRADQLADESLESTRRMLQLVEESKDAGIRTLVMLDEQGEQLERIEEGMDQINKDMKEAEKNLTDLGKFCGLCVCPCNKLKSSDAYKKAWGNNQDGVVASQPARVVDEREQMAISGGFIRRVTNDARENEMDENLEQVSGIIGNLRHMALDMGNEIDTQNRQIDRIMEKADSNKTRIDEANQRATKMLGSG
T1 sequence (Q16623 whole entry, the tested form may be a part): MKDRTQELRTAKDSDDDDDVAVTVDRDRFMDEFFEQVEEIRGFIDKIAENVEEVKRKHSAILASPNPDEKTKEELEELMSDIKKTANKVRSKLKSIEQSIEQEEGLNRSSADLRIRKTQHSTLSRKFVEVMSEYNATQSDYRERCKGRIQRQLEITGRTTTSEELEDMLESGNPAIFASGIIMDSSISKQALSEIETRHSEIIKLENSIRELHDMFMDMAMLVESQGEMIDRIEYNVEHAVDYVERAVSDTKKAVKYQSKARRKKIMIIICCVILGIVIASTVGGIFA
T1 sequence (P63045 whole entry, the tested form may be a part): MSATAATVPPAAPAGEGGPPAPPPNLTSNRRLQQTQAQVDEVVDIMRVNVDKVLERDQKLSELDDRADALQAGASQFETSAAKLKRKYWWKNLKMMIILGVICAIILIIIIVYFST
T2 sequence (P60879 whole entry): as the sequence (P60879 whole entry, the tested form may be a part) above
T2 sequence (Q16623 192-254 limits assumed): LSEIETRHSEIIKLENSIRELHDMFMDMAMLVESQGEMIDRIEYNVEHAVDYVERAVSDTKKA
T2 sequence (P63045 2-94 limits assumed): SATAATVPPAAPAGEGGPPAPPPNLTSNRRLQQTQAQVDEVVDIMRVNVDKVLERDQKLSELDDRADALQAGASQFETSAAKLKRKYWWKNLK

| SMILES | Norepinephrine release inhibiting effect (in words) (PC12 cell) | remaining activity at 20 µM [1] [%] | Reduction of membrane fusion (in words) [1] | Ratio for inhibition by 50% (IR50), membrane fusion [1] | Inhibition of SNARE complex formation (in words) [2] | SNARE complex formation (%) [2] [%] | Ratio for inhibition by 50% (IR50), SNARE complex formation [2] |
| --- | --- | --- | --- | --- | --- | --- | --- |
| O=c1c(O)c(-c2cc(O)c(O)c(O)c2)oc2cc(O)cc(O)c12 [Myricetin] | relatively high norepinephrine release inhibiting effects | 43.9 ± 8.38 | can reduce membrane fusion | 0.79 | inhibit the formation of a SNARE complex by 50% at a low concentration | 72.13 ± 10.13 | 14.9 |
| O=C(/C=C/c1ccc(O)c(O)c1)c1ccc(O)cc1O [Butein] | relatively high norepinephrine release inhibiting effects | 16.9 ± 2.98 | can reduce membrane fusion | 0.81 | inhibit the formation of a SNARE complex by 50% at a low concentration | 88.45 ± 7.09 | 30.5 |

Reference: patent publication US8263643B2, “Polyphenol compounds with modulating neurotransmitter release” (Sungkyunkwan University Foundation for Corporate …, priority 2007, dated 2012)
